# Laboratory results from publication PMC8271877, “Identifying a Deferiprone–Resveratrol Hybrid as an Effective Lipophilic Anti-Plasmodial Agent” (Molecules, 2021).
# “Also recorded” adds a separate entry of the source. Where two headings read alike, the source gives them in different places.
# Legend:
# [1] = set-up: method as in PMID 26424148; conditions: cited from earlier work
# [2] = test system: P. falciparum; set-up: method as in PMID 26424148; conditions: read-out: IC50, inhibition of P. falciparum growth; cited from earlier work
# [3] = test system: P. falciparum; conditions: read-out: IC50 against P. falciparum; cited from earlier work
# [4] = test system: P. falciparum (3D7 strain); assay: Drug sensitivity test (SYBR Green I), P. falciparum 3D7 strain; assay type: cell-based, Plasmodium falciparum; conditions: for IC50: read-out: Absolute IC50 Value, P. falciparum (3D7 Strain)
# [5] = test system: labile iron pools in P. falciparum-infected red blood cells (PRBCs); assay: Labile iron pool (LIP) in P. falciparum-infected RBC, calcein quenching, flow cytometry; assay type: cell-based, Plasmodium falciparum; conditions: for effect on MFI values of PRBCs (LIP content): 25–200 µM, calcein fluorescence, higher MFI = less LIP
# [6] = test system: P. falciparum (K1 strain); assay: Drug sensitivity test (SYBR Green I), P. falciparum K1 strain; assay type: cell-based, Plasmodium falciparum
# [7] = test system: P. falciparum; set-up: method as in PMID 23266185; conditions: read-out: IC50 against P. falciparum; cited from earlier work
# [8] = set-up: method as in PMID 28061347; conditions: metal-chelating activity; cited from earlier work
# [9] = test system: normal cell line; conditions: read-out: IC50, normal cell line; cited from earlier work
# [10] = set-up: method as in PMID 32208614; conditions: cited from earlier work
# [11] = Partition coefficient (Po/w), 1-octanol/water system; conditions: mean ± SD of three repetitions
# [12] = cited from earlier work
# [13] = set-up: method as in PMID 28061347; conditions: read-out: IC50, antioxidant activity; cited from earlier work
# [14] = test system: Aβ1–42; set-up: method as in PMID 28061347; conditions: read-out: IC50, Cu2+/Fe3+-induced Aβ1–42 aggregation; cited from earlier work
# [15] = test system: healthy human PBMCs; assay: MTT toxicity study in peripheral blood mononuclear cells
# [16] = Plasmodium falciparum, 3D7, 48 h
# [17] = Plasmodium falciparum, K1, 48 h, read-out: Absolute IC50 Value, P. falciparum (K1 Strain), PYR-resistant K1, 48 h, monotherapy
smiles,measurement,setting,value
"CC(=O)NCCCCCCn1ccc(=O)c(O)c1C [CM1, 1-(N-acetyl-6-aminohexyl)-3-hydroxy-2-methylpyridin-4-one]",Kpart,[1],0.53
same,IC50,[2],35.1 µM
"COCCOCCOCCOc1cccc(C2=N[C@@](C)(C(=O)O)CS2)c1O [DADFT-PE, (S)3″-(HO)-desazadesferrithiocin-polyether]",IC50,[3],6 µM
"CC(=O)N(O)CCCCCNC(=O)CCC(=O)N(O)CCCCCNC(=O)CCC(=O)N(O)CCCCCN [DFO, desferrioxamine]",IC50,[3],30 µM
"Cc1c(O)c(=O)ccn1C [DFP, 1,2-dimethyl-3-hydroxypyridin-4-one]",IC50,[4]; [16],47.7 µM
same,effect on MFI values of PRBCs (LIP content),[5],significantly increased the MFI values
same,IC50,[6]; [17],42 µM
same,IC50,[3],15 µM
same,IC50,[7],67 µM
same,pFe(III),[8],20.6
same,IC50,[9],> 200 µM
same,Kpart,[1],0.17
same,iron-mobilizing efficacy in rats,[10],11.8%
same,Po/w Values (partition coefficient),[11],0.18 ± 0.06
same,IC50,[2],58.2 µM
same,log Po/w values for free ligands,[12],−0.77
same,log Po/w values for [Fe-L3],[12]; iron complex,−2.6
"Cn1cc(O)c(=O)cc1C=Cc1cc(O)cc(O)c1 [DFP-RVT, 2-(3,5-dihydroxystyryl)-5-hydroxy-1-methylpyridin-4(1H)-one]","anti-malarial activity of combined treatment with PYR, 3D7 strain","[4]; DFP-RVT 5–15 µM with 25 nM PYR, 48 h",significant level of enhancement of anti-malarial activity; also recorded: additive effects
same,IC50,[4]; [16],16.8 µM
same,IC50,[13],1730 nM
same,effect on MFI values of PRBCs (LIP content),[5],significantly increased the MFI values
same,reduction in LIP levels in PRBCs compared with DFP (∆MFI),[5]; equal concentrations,more effective than conventional DFP at equal concentrations
same,"anti-malarial activity of combined treatment with PYR, K1 strain","[6]; DFP-RVT (0–15 µM) with 75 µM PYR, 48 h",significantly enhanced the anti-malarial activity; also recorded: additive effects
same,IC50,[6]; [17],13.4 µM
same,IC50,"[6]; read-out: Absolute IC50 Value, P. falciparum (K1 Strain), PYR-resistant K1, 48 h, monotherapy",14 µM
same,IC50,[14],10.7 µM
same,pFe(III),[8],19.6
same,toxicity to PBMCs,"[15]; 200 µM, 48 h of incubation",slightly toxic
same,toxicity to PBMCs,"[15]; 25–200 µM, 24 h of incubation",not found to be toxic
same,"toxicity to PBMCs (words, summary)",[15]; concentrations up to 200 µM,nontoxic to blood mononuclear cells
"CCc1nc(N)nc(N)c1-c1ccc(Cl)cc1 [PYR, pyrimethamine]",IC50,"[4]; PYR-sensitive wild-type 3D7, 48 h, monotherapy",0.05 µM
same,IC50,"[4]; Plasmodium falciparum, 3D7, 48 h, PYR-sensitive wild-type 3D7, 48 h, monotherapy",0.046 µM
same,IC50,"[6]; PYR-resistant K1, 48 h, monotherapy, read-out: Absolute IC50 Value, P. falciparum (K1 Strain)",106 µM
same,IC50,"[6]; Plasmodium falciparum, K1, 48 h, PYR-resistant K1, 48 h, monotherapy, read-out: Absolute IC50 Value, P. falciparum (K1 Strain)",106 µM
"Oc1ccc(/C=C/c2cc(O)cc(O)c2)cc1 [RVT, 3,5,4′-trihydroxy-trans-stilbene]",IC50,[14],11.9 µM
Cc1c(C)c2c(c(C)c1O)CCC(C)(C(=O)O)O2 (stereo not shown) [Trolox],IC50,[13],3890 nM
COc1cc(/C=C/C(=O)CC(=O)/C=C/c2ccc(O)c(OC)c2)ccc1O [curcumin],IC50,[14],18.7 µM
